Key:
Assay type in all cases: physicochemical
[1] = DVS (Dynamic Vapor Sorption) moisture sorption/desorption, hygroscopicity classification
Description: DVS (Dynamic Vapor Sorption): Around 10-20 mg of samples were used to test its moisture sorption/desorption profiles at 25° C. under 0%˜95%˜0% relative humidity (RH) cycle using dm/dt: 0.01%/min equilibrium and a measurement step of 5% RH.
Hygroscopicity Classification: Typical %-moisture gain as a function of increased RH was determined by DVS. Samples went through a dynamic test isothermally at 25° C. The test was divided into 2 processes, one was absorption process, the other was desorption process. RH ranged from 0% to 95% with 5% RH for each step, and when dm/dt<=0.01%, it was assumed the water sorption/desorption equilibrium is reached.

[2] = Solubility in SGF, FaSSIF, FeSSIF, 0.1M HCl, pH 4.5 and pH 6.8 aqueous at 25° C. (HPLC); conditions: for Solubility conc.(mg/ml): solubility of salts transformed to freebase; for Final pH: solubility test
Description: Solubility: Excess drug substance was equilibrated with SGF (Simulated Gastric Fluid), FaSSIF (Simulated Small Intestinal Fluid under Fasted state), FeSSIF (Simulated Small Intestinal Fluid under Fed state), 0.1M HCl, pH 4.5 aqueous, and pH 6.8 aqueous at 25° C. After stirring for 20˜24 h, each sample was filtered, diluted appropriately and analyzed by HPLC. The experiment was terminated once a solubility target of 5 mg/mL was reached.

[3] = Solid stability at 40° C./0% RH (closed) and 40° C./75% RH (open), HPLC; conditions: for 0 day % remaining / 7 day % remaining / 21 day % remaining: solid
Description: (§1) Solid stability: 5 mg of 2a was weighed into scintillation vials sealed properly and stored at 40° C./0% RH(closed), 40° C./75% RH(open) under dark conditions to avoid the effect of light on stability. Samples were collected at day 0, 5 and 10 and analyzed by HPLC.
Solid stability: 5 mg of compound was weighed into vials sealed properly and stored at 40° C./0% RH (closed), 40° C./75% RH (open) under dark conditions to avoid the effect of light. Samples were analyzed by HPLC at days 0, 7, and 21.
as §1, with “stability of compound 1a:” for “stability:”, “compound were accurately” for “of 2a was”, “condition” for “conditions”, “should be” for “were”, “10 days” for “10”

[4] = Solution stability in 0.1 N HCl, pH 4.5 buffer and pH 6.8 buffer at 25° C. and 37° C., HPLC
Description: Solution stability: A stock solution of compound (1.0 mg/mL) in MeOH was diluted with 0.1 N HCl, pH 4.5 buffer (acetate) and pH 6.8 buffer to reach constant ionic strength of 0.15 M and the same final concentration (50 μg/mL, 40% MeOH).
A stock solution of 1b and 3b (1.0 mg/mL) in MeOH was diluted with pH 6.8 buffer to reach constant ionic strength of 0.15M and the same final concentration (25 μg/mL, 40% […]).
The solutions were stored at 25° C. and 37° C.

Hygroscopicity classification by DVS ([1]; 25 °C): hygroscopic
Change In Mass (%) - ref, Desorption ([1]; Cycle 1, target RH 0.0%): 0.05%
Change In Mass (%) - ref, Sorption ([1]; Cycle 1, target RH 0.0%): 0.00%
Change In Mass (%) - ref, Desorption ([1]; Cycle 1, target RH 5.0%): 0.26%
Change In Mass (%) - ref, Hysteresis ([1]; Cycle 1, target RH 5.0%): 0.23%
Change In Mass (%) - ref, Sorption ([1]; Cycle 1, target RH 5.0%): 0.03%
Change In Mass (%) - ref, Desorption ([1]; Cycle 1, target RH 10.0%): 0.46%
Change In Mass (%) - ref, Hysteresis ([1]; Cycle 1, target RH 10.0%): 0.18%
Change In Mass (%) - ref, Sorption ([1]; Cycle 1, target RH 10.0%): 0.28%
Change In Mass (%) - ref, Desorption ([1]; Cycle 1, target RH 15.0%): 0.61%
Change In Mass (%) - ref, Hysteresis ([1]; Cycle 1, target RH 15.0%): 0.29%
Change In Mass (%) - ref, Sorption ([1]; Cycle 1, target RH 15.0%): 0.32%
Change In Mass (%) - ref, Desorption ([1]; Cycle 1, target RH 20.0%): 4.13%
Change In Mass (%) - ref, Hysteresis ([1]; Cycle 1, target RH 20.0%): 3.79%
Change In Mass (%) - ref, Sorption ([1]; Cycle 1, target RH 20.0%): 0.34%
Change In Mass (%) - ref, Desorption ([1]; Cycle 1, target RH 25.0%): 8.89%
Change In Mass (%) - ref, Hysteresis ([1]; Cycle 1, target RH 25.0%): 8.50%
Change In Mass (%) - ref, Sorption ([1]; Cycle 1, target RH 25.0%): 0.39%
Change In Mass (%) - ref, Desorption ([1]; Cycle 1, target RH 30.0%): 9.08%
Change In Mass (%) - ref, Hysteresis ([1]; Cycle 1, target RH 30.0%): 1.62%
Change In Mass (%) - ref, Sorption ([1]; Cycle 1, target RH 30.0%): 7.46%
Change In Mass (%) - ref, Desorption ([1]; Cycle 1, target RH 35.0%): 9.14%
Change In Mass (%) - ref, Hysteresis ([1]; Cycle 1, target RH 35.0%): 0.21%
Change In Mass (%) - ref, Sorption ([1]; Cycle 1, target RH 35.0%): 8.93%
Change In Mass (%) - ref, Desorption ([1]; Cycle 1, target RH 40.0%): 9.18%
Change In Mass (%) - ref, Hysteresis ([1]; Cycle 1, target RH 40.0%): 0.13%
Change In Mass (%) - ref, Sorption ([1]; Cycle 1, target RH 40.0%): 9.06%
Change In Mass (%) - ref, Desorption ([1]; Cycle 1, target RH 45.0%): 9.26%
Change In Mass (%) - ref, Hysteresis ([1]; Cycle 1, target RH 45.0%): 0.16%
Change In Mass (%) - ref, Sorption ([1]; Cycle 1, target RH 45.0%): 9.10%
Change In Mass (%) - ref, Desorption ([1]; Cycle 1, target RH 50.0%): 10.73%
Change In Mass (%) - ref, Hysteresis ([1]; Cycle 1, target RH 50.0%): 1.59%
Change In Mass (%) - ref, Sorption ([1]; Cycle 1, target RH 50.0%): 9.14%
Change In Mass (%) - ref, Desorption ([1]; Cycle 1, target RH 55.0%): 10.99%
Change In Mass (%) - ref, Hysteresis ([1]; Cycle 1, target RH 55.0%): 1.77%
Change In Mass (%) - ref, Sorption ([1]; Cycle 1, target RH 55.0%): 9.22%
Change In Mass (%) - ref, Desorption ([1]; Cycle 1, target RH 60.0%): 11.23%
Change In Mass (%) - ref, Hysteresis ([1]; Cycle 1, target RH 60.0%): 1.82%
Change In Mass (%) - ref, Sorption ([1]; Cycle 1, target RH 60.0%): 9.41%
Change In Mass (%) - ref, Desorption ([1]; Cycle 1, target RH 65.0%): 11.50%
Change In Mass (%) - ref, Hysteresis ([1]; Cycle 1, target RH 65.0%): 0.36%
Change In Mass (%) - ref, Sorption ([1]; Cycle 1, target RH 65.0%): 11.14%
Change In Mass (%) - ref, Desorption ([1]; Cycle 1, target RH 70.0%): 11.84%
Change In Mass (%) - ref, Hysteresis ([1]; Cycle 1, target RH 70.0%): 0.04%
Change In Mass (%) - ref, Sorption ([1]; Cycle 1, target RH 70.0%): 11.79%
Change In Mass (%) - ref, Desorption ([1]; Cycle 1, target RH 75.0%): 12.27%
Change In Mass (%) - ref, Hysteresis ([1]; Cycle 1, target RH 75.0%): 0.04%
Change In Mass (%) - ref, Sorption ([1]; Cycle 1, target RH 75.0%): 12.23%
Change In Mass (%) - ref, Desorption ([1]; Cycle 1, target RH 80.0%): 12.85%
Change In Mass (%) - ref, Hysteresis ([1]; Cycle 1, target RH 80.0%): 0.05%
Change In Mass (%) - ref, Sorption ([1]; Cycle 1, target RH 80.0%): 12.79%
Change In Mass (%) - ref, Desorption ([1]; Cycle 1, target RH 85.0%): 13.71%
Change In Mass (%) - ref, Hysteresis ([1]; Cycle 1, target RH 85.0%): 0.08%
Change In Mass (%) - ref, Sorption ([1]; Cycle 1, target RH 85.0%): 13.64%
Change In Mass (%) - ref, Desorption ([1]; Cycle 1, target RH 90.0%): 15.23%
Change In Mass (%) - ref, Hysteresis ([1]; Cycle 1, target RH 90.0%): 0.15%
Change In Mass (%) - ref, Sorption ([1]; Cycle 1, target RH 90.0%): 15.08%
Change In Mass (%) - ref, Desorption ([1]; Cycle 1, target RH 95.0%): 17.97%
Change In Mass (%) - ref, Sorption ([1]; Cycle 1, target RH 95.0%): 17.97%
moisture picked up (DVS) ([1]; at 80% RH, 25 °C): ~13%
moisture picked up (DVS) ([1]; at 95% RH, 25 °C): ~18%
Solubility conc.(mg/ml) ([2]; 0.1N HCL): 0.261 mg/mL
Solubility conc.(mg/ml) ([2]; FaSSIF): 0.009 mg/mL
Solubility conc.(mg/ml) ([2]; FeSSIF): 0.010 mg/mL
Solubility conc.(mg/ml) ([2]; SGF): 1.828 mg/mL
Solubility conc.(mg/ml) ([2]; Water): 0.145 mg/mL
Solubility conc.(mg/ml) ([2]; pH 4.5 Acetate Buffer (USP)): 0.012 mg/mL
Solubility conc.(mg/ml) ([2]; pH 6.8 Phosphate Buffer (USP)): 0.014 mg/mL
Final pH ([2]; 0.1N HCL): 1.56
Final pH ([2]; FaSSIF): 6.04
Final pH ([2]; FeSSIF): 4.87
Final pH ([2]; SGF): 1.55
Final pH ([2]; Water): 2.71
Final pH ([2]; pH 4.5 Acetate Buffer (USP)): 4.42
Final pH ([2]; pH 6.8 Phosphate Buffer (USP)): 6.64
Solid-state stability (HPLC) ([3]; 40° C./0% RH (closed) and 40° C./75% RH (open), dark, up to 3 weeks): substantially stable
0 day % remaining ([3]; 40° C. (0% RH, closed)): 100.0%
7 day % remaining ([3]; 40° C. (0% RH, closed)): 99.1%
21 day % remaining ([3]; 40° C. (0% RH, closed)): 99.2%
0 day % remaining ([3]; 40° C./75% RH (open)): 100.0%
7 day % remaining ([3]; 40° C./75% RH (open)): 100.3%
21 day % remaining ([3]; 40° C./75% RH (open)): 99.8%
Remaining % ([4]; 25° C., 0.1N HCL, 0 h, 50 μg/mL, 40% MeOH): 100.00%
Remaining % ([4]; 25° C., 0.1N HCL, 3 h, 50 μg/mL, 40% MeOH): 100.31%
Remaining % ([4]; 25° C., 0.1N HCL, 24 h, 50 μg/mL, 40% MeOH): 100.62%
Solution stability ([4]; 25° C., 24 h, 0.1 N HCl, pH 4.5 buffer and pH 6.8 buffer): stable
Remaining % ([4]; 25° C., pH 4.5, 0 h, 50 μg/mL, 40% MeOH): 100.00%
Remaining % ([4]; 25° C., pH 4.5, 3 h, 50 μg/mL, 40% MeOH): 100.00%
Remaining % ([4]; 25° C., pH 4.5, 24 h, 50 μg/mL, 40% MeOH): 100.08%
Remaining % ([4]; 25° C., pH 6.8*, 0 h, final conc. 25 μg/mL with 40% DMSO): 100.00%
Remaining % ([4]; 25° C., pH 6.8*, 3 h, final conc. 25 μg/mL with 40% DMSO): 99.64%
Remaining % ([4]; 25° C., pH 6.8*, 24 h, final conc. 25 μg/mL with 40% DMSO): 99.64%
Remaining % ([4]; 37° C., 0.1N HCL, 0 h, 50 μg/mL, 40% MeOH): 100.00%
Remaining % ([4]; 37° C., 0.1N HCL, 3 h, 50 μg/mL, 40% MeOH): 99.92%
Remaining % ([4]; 37° C., 0.1N HCL, 24 h, 50 μg/mL, 40% MeOH): 100.92%
Solution stability ([4]; 37° C., 24 h, 0.1N HCl, pH 4.5 buffer): stable
Solution stability ([4]; 37° C., 24 h, pH 6.8 buffer): decomposed
Remaining % ([4]; 37° C., pH 4.5, 0 h, 50 μg/mL, 40% MeOH): 100.00%
Remaining % ([4]; 37° C., pH 4.5, 3 h, 50 μg/mL, 40% MeOH): 100.39%
Remaining % ([4]; 37° C., pH 4.5, 24 h, 50 μg/mL, 40% MeOH): 100.47%
Remaining % ([4]; 37° C., pH 6.8*, 0 h, final conc. 25 μg/mL with 40% DMSO): 100.00%
Remaining % ([4]; 37° C., pH 6.8*, 3 h, final conc. 25 μg/mL with 40% DMSO): 99.22%
Remaining % ([4]; 37° C., pH 6.8*, 24 h, final conc. 25 μg/mL with 40% DMSO): 85.89%
Structure (SMILES): COc1ccc2c(c1)CCN1Cc3c(ccc(OC)c3OS(=O)(=O)c3cccc(F)c3)C[C@@H]21 [Compound 3b]
